Laboratory results as given in ChEMBL document CHEMBL1201862, “PubChem BioAssay data set” (2004).
Activity calls are given as the source filed them. For most assays here, no stated cut-off is given here; in the data, actives have a measured EC50 and inactives only a lower limit.

Legend:
[1] = viability of uninfected HEp-2 cells – cell-based, HTS, cytotoxicity control for RSV inhibitor project, dose response (AID 2410); type: functional; conditions: human respiratory syncytial virus
[2] = Luminescence Cell-Based Dose Retest to Confirm Inhibitors of Cancer Stem Cells. [Related pubchem assays (depositor defined):AID2717, AID2721]; type: functional; conditions: Homo sapiens
[3] = target: Luciferin 4-monooxygenase (Photinus pyralis, UniProt P08659); test: inhibition of purified Photinus pyralis luciferase – biochemical, luminescence, dose response (AID 1891)
[4] = Luminescence Cell-Based Dose Confirmation HTS to Identify Inhibitors of Platelet Dense Granule Release. [Related pubchem assays: 1663 (Primary HTS), 1678 (Summary of Project)]; type: functional
[5] = NIH-3T3 fibroblast cytotoxicity, dose response, cytotoxicity control, cell-based, fluorescence, Alamar Blue, secondary assay (AID 2327); type: functional;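 further: NIH-3T3 mouse fibroblasts cultured with fluconazole at 8 µg/mL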
[6] = fluconazole-exposed Candida albicans growth modulators – fluorescence, retest, confirmation (AID 2467); type: functional, cell-based
[7] = Trypanosoma cruzi growth suppression in host cells – NIH3T3 host cells, beta-gal luminescence, confirmation (AID 2044); type: functional, cell-based;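 further: intracellular parasites grown in NIH/3T3 mouse fibroblasts as host cells; luminescent beta-galactosidase reporter signal from transgenic T. cruzi replicating inside host cells; inhibitors lower the luminescence signal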
[8] = NIH3T3 cell viability loss – ATP luminescence, mouse fibroblasts, counter-screen, dose response (AID 2010); type: functional, cell-based;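 further: cells exposed to compound for about 90 hours before reading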
INS1 = test: INS-1E survival protection against cytokine death – cell-based, luminescence, retest, dose response (AID 449756); type: functional; conditions: Rattus norvegicus;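 further: cell death triggered by IL-1 beta plus TNF-alpha plus IFN-gamma mixture; protective hits raise ATP signal compared with cytokine alone wells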
[9] = reduction of Shn3 3'UTR-driven luciferase in osteoblasts – cell-based, Clone20 osteoblasts, firefly luciferase, cherry-picked, dose response (AID 624132); type: functional;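 further: firefly luciferase luminescence from reporter carrying the Shn3 3'UTR in osteoblasts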
[10] = non-specific 3'UTR reporter inhibition in Clone20-Shn3RL – cell-based, Renilla luciferase, cherry-picked, counter-screen for Shn3 inhibitor project, dose response (AID 624133); type: functional
[11] = target: T1, Corticotropin-releasing factor receptor 2/Corticotropin-releasing factor-binding protein (Homo sapiens, UniProt P24387+Q13324); test: activators of CRF receptor 2 with binding protein – uHTS hits, confirmation (AID 602473); type: functional; conditions: read-out: EC50_Mean
T1 sequence (Q13324 whole entry): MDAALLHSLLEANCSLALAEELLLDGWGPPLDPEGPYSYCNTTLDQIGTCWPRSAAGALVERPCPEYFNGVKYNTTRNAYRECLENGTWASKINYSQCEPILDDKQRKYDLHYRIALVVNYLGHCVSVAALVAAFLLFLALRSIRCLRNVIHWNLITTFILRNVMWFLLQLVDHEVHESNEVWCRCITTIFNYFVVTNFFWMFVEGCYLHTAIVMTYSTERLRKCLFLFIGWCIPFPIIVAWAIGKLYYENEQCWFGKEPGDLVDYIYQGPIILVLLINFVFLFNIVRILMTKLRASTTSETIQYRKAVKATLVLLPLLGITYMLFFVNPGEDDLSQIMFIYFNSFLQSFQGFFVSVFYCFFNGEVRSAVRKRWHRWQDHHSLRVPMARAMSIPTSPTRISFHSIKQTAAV
T1 sequence (P24387 whole entry): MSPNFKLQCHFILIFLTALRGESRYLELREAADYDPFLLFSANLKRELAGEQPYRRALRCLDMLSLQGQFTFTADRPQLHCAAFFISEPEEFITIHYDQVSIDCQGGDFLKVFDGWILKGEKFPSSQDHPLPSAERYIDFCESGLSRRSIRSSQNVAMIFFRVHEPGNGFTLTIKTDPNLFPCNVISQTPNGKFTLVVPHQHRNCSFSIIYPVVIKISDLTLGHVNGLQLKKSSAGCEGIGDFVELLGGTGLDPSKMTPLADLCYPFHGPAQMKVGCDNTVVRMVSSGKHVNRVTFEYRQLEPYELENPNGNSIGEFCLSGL

[12] = target: T2, Replicative DNA helicase DnaB (Mycobacterium tuberculosis, UniProt P9WMR3); test: DnaB intein splicing inhibitors, dose response, biochemical, cell-free fluorescence (AID 449749); type: functional
T2 sequence (P9WMR3 whole entry): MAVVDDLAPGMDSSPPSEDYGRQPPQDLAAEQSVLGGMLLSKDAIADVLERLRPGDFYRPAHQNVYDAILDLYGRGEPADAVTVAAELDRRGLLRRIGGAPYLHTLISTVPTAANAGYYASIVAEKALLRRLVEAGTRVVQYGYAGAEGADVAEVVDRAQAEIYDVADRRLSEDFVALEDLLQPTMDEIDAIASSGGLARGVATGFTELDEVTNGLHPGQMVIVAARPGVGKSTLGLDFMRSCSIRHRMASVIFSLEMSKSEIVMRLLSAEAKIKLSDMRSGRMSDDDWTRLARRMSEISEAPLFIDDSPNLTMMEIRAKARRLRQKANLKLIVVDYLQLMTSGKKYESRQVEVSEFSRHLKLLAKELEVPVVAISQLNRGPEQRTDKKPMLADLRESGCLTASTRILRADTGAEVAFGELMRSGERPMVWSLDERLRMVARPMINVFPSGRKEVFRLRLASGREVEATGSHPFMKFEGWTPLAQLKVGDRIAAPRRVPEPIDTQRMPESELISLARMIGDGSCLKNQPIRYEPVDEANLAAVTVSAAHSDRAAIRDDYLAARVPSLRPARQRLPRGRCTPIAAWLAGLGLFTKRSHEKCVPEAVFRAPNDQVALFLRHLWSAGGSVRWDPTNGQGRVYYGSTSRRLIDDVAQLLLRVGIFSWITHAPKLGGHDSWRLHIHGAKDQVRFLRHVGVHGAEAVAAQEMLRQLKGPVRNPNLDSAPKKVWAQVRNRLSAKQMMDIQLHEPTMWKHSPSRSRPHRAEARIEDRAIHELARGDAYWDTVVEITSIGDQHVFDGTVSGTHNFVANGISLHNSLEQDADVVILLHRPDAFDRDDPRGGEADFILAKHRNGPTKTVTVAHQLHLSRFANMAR

Protein RecA = target: T3, Protein RecA (Mycobacterium tuberculosis, UniProt P9WHJ3); test: Fluorescence Cell-Free Homogeneous Dose Retest to Identify Inhibitors of RecA-Intein Splicing Activity. [Related pubchem assays (depositor defined):AID2097, AID2223, AID489010, AID492950]; type: functional
T3 sequence (P9WHJ3 whole entry): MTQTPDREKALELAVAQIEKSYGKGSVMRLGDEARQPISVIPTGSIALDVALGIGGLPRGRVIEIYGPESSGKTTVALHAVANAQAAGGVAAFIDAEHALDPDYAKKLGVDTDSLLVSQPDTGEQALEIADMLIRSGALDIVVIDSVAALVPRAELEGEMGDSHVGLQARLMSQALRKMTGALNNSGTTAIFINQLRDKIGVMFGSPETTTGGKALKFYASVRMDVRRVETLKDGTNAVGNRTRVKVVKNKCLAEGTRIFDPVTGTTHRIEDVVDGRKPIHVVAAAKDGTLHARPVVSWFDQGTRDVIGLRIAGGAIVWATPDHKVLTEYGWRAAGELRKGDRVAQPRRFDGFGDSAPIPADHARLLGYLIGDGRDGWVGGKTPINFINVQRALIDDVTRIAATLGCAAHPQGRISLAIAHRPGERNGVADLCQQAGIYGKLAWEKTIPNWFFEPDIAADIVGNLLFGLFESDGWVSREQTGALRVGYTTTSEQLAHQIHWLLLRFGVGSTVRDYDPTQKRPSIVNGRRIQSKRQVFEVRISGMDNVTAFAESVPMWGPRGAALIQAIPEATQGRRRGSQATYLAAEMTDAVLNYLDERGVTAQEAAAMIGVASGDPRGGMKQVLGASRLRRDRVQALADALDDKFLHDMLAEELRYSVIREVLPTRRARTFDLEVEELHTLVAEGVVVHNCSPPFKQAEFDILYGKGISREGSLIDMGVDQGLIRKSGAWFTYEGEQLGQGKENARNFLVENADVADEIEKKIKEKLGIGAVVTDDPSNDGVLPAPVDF

cells [13] = type: functional, cell-based
cells [14] = type: functional, cell-based; remark: listed apart in the source

Luciferin 4-monooxygenase, sequence (P08659 whole entry): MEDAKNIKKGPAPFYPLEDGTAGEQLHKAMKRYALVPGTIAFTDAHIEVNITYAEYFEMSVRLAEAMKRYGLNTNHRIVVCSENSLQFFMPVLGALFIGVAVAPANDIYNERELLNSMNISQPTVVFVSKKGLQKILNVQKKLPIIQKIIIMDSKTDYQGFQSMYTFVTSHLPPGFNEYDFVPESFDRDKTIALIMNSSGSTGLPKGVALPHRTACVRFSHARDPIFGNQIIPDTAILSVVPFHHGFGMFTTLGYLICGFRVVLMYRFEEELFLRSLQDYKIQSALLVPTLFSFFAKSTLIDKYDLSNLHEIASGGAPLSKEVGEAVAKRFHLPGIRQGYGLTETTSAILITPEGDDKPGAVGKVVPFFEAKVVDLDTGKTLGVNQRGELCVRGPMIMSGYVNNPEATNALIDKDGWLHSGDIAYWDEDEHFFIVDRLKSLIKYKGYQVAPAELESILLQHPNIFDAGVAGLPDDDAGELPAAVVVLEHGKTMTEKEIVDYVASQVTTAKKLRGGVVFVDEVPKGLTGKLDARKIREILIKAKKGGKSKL

SMILES: O=C(Cn1cnc2c(cnn2-c2ccccc2)c1=O)N1CCOCC1
- CC50 [1]: 30.5 µM (active)

SMILES: O=C(Cc1ccc(Cl)cc1)Nc1ccc2c(c1)C(=O)NC2=O
- AC50 [2]: > 195 µM (inactive)

SMILES: CCc1nnc(NC(=O)CSc2nnc(Cc3cccn3C)n2CCOC)s1
- EC50 [3]: > 112 µM (not active)
- EC50 [4]: > 112 µM (not active)

SMILES: O=C(NNC(=O)c1cc(Cl)ccc1O)c1ccc(NS(=O)(=O)c2cccs2)cc1
- EC50 [5]: > 160 µM (inactive)
- EC50 [6]: > 38 µM (not active)
- AC50 [2]: 9 µM (active)

SMILES: CN=C(S)Nc1ccc(C(N)=O)cc1
- EC50 [4]: > 112 µM (not active)

SMILES: CNC(=S)Nc1ccc(C(N)=O)cc1
- EC50 [3]: > 112 µM (not active)

SMILES: Cc1ccc(-c2ccc(/C=C/C(=O)c3ccccc3)o2)cc1
- CC50 [1]: 12.8 µM (active)

SMILES: CCCCC(=O)N1C/C=C\C(c2ccc(OC)cc2)N(Cc2ccc(F)cc2)C(=O)[C@H]1Cc1ccccc1 (stereo partly specified)
- EC50 [7]: 1.99 µM (active)
- EC50 [8]: > 60 µM (not active)
- AC50 (INS1): 8.17 µM (active)

SMILES: COc1ccccc1NC(=O)COC(=O)c1ccccc1C(=O)N1CCN(c2ccccc2)CC1
- CC50 [1]: 29.5 µM (active)

SMILES: Cc1ccc2[nH]c(SCC(=O)Nc3ccc(C)c([N+](=O)[O-])c3)nc2c1
- CC50 [1]: 25.5 µM (active)

SMILES: O=C(NCc1ccccn1)c1cc(-c2ccc(Cl)cc2)oc1C(F)(F)F
- AC50 (INS1): > 260 µM (inactive)

SMILES: COc1cccc(N2CCN(Cc3nc(O)c4c(-c5ccccc5)csc4n3)CC2)c1
- AC50 [2]: 1.08 µM (active)

SMILES: COc1ccc(-c2cn3c(C)c(C(=O)N4CCCc5ccccc54)sc3n2)cc1
- CC50 [1]: 13.3 µM (active)

SMILES: CCN(CCn1cccn1)Cc1c[nH]nc1-c1cccc2ccccc12
- EC50 [3]: > 112 µM (not active)
- EC50 [4]: > 112 µM (not active)

SMILES: Cc1cc(CN2CCOCC2)c(O)c(C2(C)CCCCC2)c1
- AC50 [9]: 32.3 µM (active)
- AC50 [10]: 32.1 µM (active)

SMILES: COc1ccc(OC)c(CCNC(=O)CCc2nnc3ccc(N4CCCCC4)nn23)c1
- EC50 [3]: > 112 µM (not active)
- EC50 [4]: 52.5 µM (active)

SMILES: COc1ccc(NC(=O)Nc2nc3c(s2)CCCC3)cc1
- EC50 [5]: > 150 µM (inactive)
- EC50 [6]: 8.48 µM (active)

SMILES: Cc1ccc(-n2c(C)cc(/C(O)=C(/C([S-])=Nc3ccc(F)c(Cl)c3)[n+]3ccccc3)c2C)cc1
- EC50 [5]: > 160 µM (inactive)
- EC50 [6]: > 38 µM (not active)

SMILES: COc1ccc(C2NC(c3ccc(OC)cc3)C([N+](=O)[O-])C(C)(C)C2[N+](=O)[O-])cc1 (stereo unspecified)
- EC50 [3]: > 112 µM (not active)
- EC50 [4]: > 112 µM (not active)

SMILES: COCCCn1c(SCc2cccc(C(F)(F)F)c2)nc2cc(OC)c(OC)cc2c1=N
- EC50 [7]: 1.92 µM (active)
- EC50 [8]: > 60 µM (not active)
- AC50 [2]: 4.12 µM (active)

SMILES: COc1cc(OC)cc(C(=O)NNC(=O)c2cc3ccccc3cc2O)c1
- EC50 [5]: > 160 µM (inactive)
- EC50 [6]: > 38 µM (not active)

SMILES: Cc1ccc(-n2c(-c3cccs3)nc3ccccc3c2=O)cc1
- AC50 [2]: 2 µM (active)

SMILES: CCOc1ccc(C(=O)Nc2ccc(Cc3ccncc3)cc2)cc1Br
- EC50 [5]: > 150 µM (inactive)
- EC50 [6]: > 38 µM (not active)
- EC50 [7]: 1.68 µM (active)
- EC50 [8]: > 60 µM (not active)

SMILES: O=C(Nc1ccc(-n2cnnn2)cc1)c1cn2ccccc2n1
- EC50 [11]: > 53 µM (inactive)

SMILES: Cc1cccc(NC(=O)CC2SC(=O)N(c3ccccc3)C2=O)c1 (stereo unspecified)
- EC50 [3]: > 112 µM (not active)
- EC50 [4]: > 112 µM (not active)

SMILES: COCCN(C(=O)CC(C)(C)C)c1nnc(-c2cccnc2)s1
- EC50 [3]: > 112 µM (not active)
- EC50 [4]: > 112 µM (not active)

SMILES: Cc1cc(NC(=O)c2ccc3c(c2)OCO3)ccc1NC(=O)c1ccco1
- EC50 [3]: 4.06 µM (active)
- EC50 [4]: 12.7 µM (active)

SMILES: N#CC1(NC(=O)COC(=O)c2cc(O)c3ccccc3c2O)CCCCC1
- AC50 [2]: 6.49 µM (active)
- AC50 [12]: 4.37 µM (active)
- EC50 (Protein RecA): 4.28 µM (active)

SMILES: COc1cccc(CNC(=O)N[C@@H](CC(C)C)C(=O)O)c1
- EC50 [3]: > 112 µM (not active)
- EC50 [4]: > 112 µM (not active)

SMILES: O=C(/C=C/c1ccc2c(c1)OCO2)Nc1nc(-c2ccccc2)cs1
- AC50 [2]: 0.943 µM (active)

SMILES: c1ccc(Cn2nnc3c(N4CCC5(CC4)OCCO5)ncnc32)cc1
- CC50 [1]: 29.6 µM (active)

SMILES: N=C(Cc1ccc(Cl)cc1Cl)NOC(=O)c1ccccc1
- EC50 [5]: > 160 µM (inactive)
- EC50 [6]: > 38 µM (not active)

SMILES: CCCCn1c(N)c(N(CC)C(=O)c2cc(OC)cc(OC)c2)c(=O)[nH]c1=O
- EC50 (cells [13]): > 350 µM (not active)
- EC50 (cells [14]): > 350 µM (not active)

SMILES: Cc1ccc(S(=O)(=O)N2[C@@H](c3ccc(C(C)(C)C)cc3)C(C(=O)O)=CC[C@H]2c2cccc(Cl)c2)cc1
- AC50 [2]: 2.86 µM (active)

SMILES: COc1cccc(C(=O)NCc2ccc3c(c2)cc(C)n3C)c1
- EC50 [3]: > 112 µM (not active)
- EC50 [4]: 21.3 µM (active)

SMILES: COCCNC(=O)C(c1ccc(C)o1)N(CCOC)C(=O)Cn1nnc2ccccc21 (stereo unspecified)
- EC50 [5]: > 150 µM (inactive)
- EC50 [6]: > 38 µM (not active)

SMILES: Cc1cccc(C)c1NC(=O)CN(C)C(=O)Cn1c(=O)cnc2ccccc21
- EC50 [3]: > 112 µM (not active)
- EC50 [4]: > 112 µM (not active)

SMILES: CCc1cccc2c(-c3cs/c(=N\C)n3C)c[nH]c12
- CC50 [1]: 41.7 µM (active)
